Converted amounts (≈) assume the structure as drawn.
These compounds were tested on E. cloacae β19 (assay: In vitro antibacterial activity test (broth microdilution)). Conditions: Enterobacter cloacae.
Assay type: cell-based
Procedure, shortened: (§1)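 Compounds were dissolved in DMSO at 10,240 ug/mL stock, diluted two-fold in DMSO and then twenty-fold in sterile water. Final test concentrations spanned 0.0626 to 128 ug/mL with 2.5% (V/V) DMSO, and MIC90 was read by CLSI broth microdilution.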
For `CC(C)(O/N=C(\C(=O)N[C@@H]1C(=O)N2C(C(=O)[O-])=C(/C=C/C[n+]3cnc(N)c(NC(=O)CCN)c3)CSC12)c1nc(N)sc1Cl)C(=O)O` (some centres unmarked) [Compound 62], the MIC90 was 4 µg/mL (≈ 5.64 µM).
For `CC(C)(O/N=C(\C(=O)N[C@@H]1C(=O)N2C(C(=O)[O-])=C(/C=C/C[n+]3cnc(N)c(NCCN)c3)CSC12)c1nc(N)sc1Cl)C(=O)O` (some centres unmarked) [Compound 54], the MIC90 was 4 µg/mL (≈ 5.87 µM).

The compounds below were run on A. calcoaceticus ATCC15473 in the same assay as above. Conditions: Acinetobacter calcoaceticus, ATCC15473, A. calcoaceticus ATCC15473.
Assay type: cell-based
Procedure, shortened: as §1
With `CC(C)(O/N=C(\C(=O)N[C@@H]1C(=O)N2C(C(=O)[O-])=C(/C=C/C[n+]3cnc(N)c(NC(=O)CCN)c3)CSC12)c1nc(N)sc1Cl)C(=O)O` (some centres unmarked) [Compound 62] the MIC90 was 1 µg/mL (≈ 1.41 µM).
Work on `CC(C)(O/N=C(\C(=O)N[C@@H]1C(=O)N2C(C(=O)[O-])=C(/C=C/C[n+]3cnc(N)c(NCCN)c3)CSC12)c1nc(N)sc1Cl)C(=O)O` (some centres unmarked) [Compound 54] yielded an MIC90 of 1 µg/mL (≈ 1.47 µM).

What follows are compounds tested on A. baumannii 49 in the same assay as above. Conditions: Acinetobacter baumannii, 49, A. baumannii 49.
Assay type: cell-based
Procedure, shortened: as §1
With `CC(C)(O/N=C(\C(=O)N[C@@H]1C(=O)N2C(C(=O)[O-])=C(/C=C/C[n+]3cnc(N)c(NC(=O)CCN)c3)CSC12)c1nc(N)sc1Cl)C(=O)O` (some centres unmarked) [Compound 62] the MIC90 was 32 µg/mL (≈ 45.1 µM).
Compound `CC(C)(O/N=C(\C(=O)N[C@@H]1C(=O)N2C(C(=O)[O-])=C(/C=C/C[n+]3cnc(N)c(NCCN)c3)CSC12)c1nc(N)sc1Cl)C(=O)O` (some centres unmarked) [Compound 54] has an MIC90 of 128 µg/mL (≈ 188 µM).

Each compound was assayed on K. pneumoniae β10 in the same assay as above. Conditions: Klebsiella pneumoniae.
Assay type: cell-based
Procedure, shortened: as §1
`CC(C)(O/N=C(\C(=O)N[C@@H]1C(=O)N2C(C(=O)[O-])=C(/C=C/C[n+]3cnc(N)c(NC(=O)CCN)c3)CSC12)c1nc(N)sc1Cl)C(=O)O` (some centres unmarked) [Compound 62] gave an MIC90 of 0.5 µg/mL (≈ 0.705 µM).
With `CC(C)(O/N=C(\C(=O)N[C@@H]1C(=O)N2C(C(=O)[O-])=C(/C=C/C[n+]3cnc(N)c(NCCN)c3)CSC12)c1nc(N)sc1Cl)C(=O)O` (some centres unmarked) [Compound 54] the MIC90 was 0.5 µg/mL (≈ 0.734 µM).

The compounds below were run on A. baumannii 46 in the same assay as above. Conditions: Acinetobacter baumannii, 46, A. baumannii 46.
Assay type: cell-based
Procedure, shortened: as §1
For `CC(C)(O/N=C(\C(=O)N[C@@H]1C(=O)N2C(C(=O)[O-])=C(/C=C/C[n+]3cnc(N)c(NC(=O)CCN)c3)CSC12)c1nc(N)sc1Cl)C(=O)O` (some centres unmarked) [Compound 62], the MIC90 was 16 µg/mL (≈ 22.6 µM).
For `CC(C)(O/N=C(\C(=O)N[C@@H]1C(=O)N2C(C(=O)[O-])=C(/C=C/C[n+]3cnc(N)c(NCCN)c3)CSC12)c1nc(N)sc1Cl)C(=O)O` (some centres unmarked) [Compound 54], the MIC90 was 4 µg/mL (≈ 5.87 µM).

These compounds were tested on M. catarrhalis 2524 in the same assay as above. Conditions: Moraxella catarrhalis, 2524.
Assay type: cell-based
Procedure, shortened: as §1
With `CC(C)(O/N=C(\C(=O)N[C@@H]1C(=O)N2C(C(=O)[O-])=C(/C=C/C[n+]3cnc(N)c(NC(=O)CCN)c3)CSC12)c1nc(N)sc1Cl)C(=O)O` (some centres unmarked) [Compound 62] the MIC90 was under 0.0625 µg/mL.
`CC(C)(O/N=C(\C(=O)N[C@@H]1C(=O)N2C(C(=O)[O-])=C(/C=C/C[n+]3cnc(N)c(NCCN)c3)CSC12)c1nc(N)sc1Cl)C(=O)O` (some centres unmarked) [Compound 54] showed an MIC90 of under 0.0625 µg/mL.

What follows are compounds tested on K. pneumoniae β14 in the same assay as above. Conditions: Klebsiella pneumoniae.
Assay type: cell-based
Procedure, shortened: as §1
`CC(C)(O/N=C(\C(=O)N[C@@H]1C(=O)N2C(C(=O)[O-])=C(/C=C/C[n+]3cnc(N)c(NC(=O)CCN)c3)CSC12)c1nc(N)sc1Cl)C(=O)O` (some centres unmarked) [Compound 62] showed an MIC90 of 1 µg/mL (≈ 1.41 µM).
In the case of `CC(C)(O/N=C(\C(=O)N[C@@H]1C(=O)N2C(C(=O)[O-])=C(/C=C/C[n+]3cnc(N)c(NCCN)c3)CSC12)c1nc(N)sc1Cl)C(=O)O` (some centres unmarked) [Compound 54], the MIC90 was 1 µg/mL (≈ 1.47 µM).

These compounds were tested on P. aeruginosa 1912E in the same assay as above. Conditions: Pseudomonas aeruginosa, 1912E.
Assay type: cell-based
Procedure, shortened: as §1
`CC(C)(O/N=C(\C(=O)N[C@@H]1C(=O)N2C(C(=O)[O-])=C(/C=C/C[n+]3cnc(N)c(NC(=O)CCN)c3)CSC12)c1nc(N)sc1Cl)C(=O)O` (some centres unmarked) [Compound 62] showed an MIC90 of 4 µg/mL (≈ 5.64 µM).
`CC(C)(O/N=C(\C(=O)N[C@@H]1C(=O)N2C(C(=O)[O-])=C(/C=C/C[n+]3cnc(N)c(NCCN)c3)CSC12)c1nc(N)sc1Cl)C(=O)O` (some centres unmarked) [Compound 54] gave an MIC90 of 2 µg/mL (≈ 2.94 µM).

Each compound was assayed on K. pneumoniae β9 in the same assay as above. Conditions: Klebsiella pneumoniae.
Assay type: cell-based
Procedure, shortened: as §1
`CC(C)(O/N=C(\C(=O)N[C@@H]1C(=O)N2C(C(=O)[O-])=C(/C=C/C[n+]3cnc(N)c(NC(=O)CCN)c3)CSC12)c1nc(N)sc1Cl)C(=O)O` (some centres unmarked) [Compound 62] showed an MIC90 of 1 µg/mL (≈ 1.41 µM).
In the case of `CC(C)(O/N=C(\C(=O)N[C@@H]1C(=O)N2C(C(=O)[O-])=C(/C=C/C[n+]3cnc(N)c(NCCN)c3)CSC12)c1nc(N)sc1Cl)C(=O)O` (some centres unmarked) [Compound 54], the MIC90 was 1 µg/mL (≈ 1.47 µM).

These compounds were tested on K. pneumoniae β11 in the same assay as above. Conditions: Klebsiella pneumoniae.
Assay type: cell-based
Procedure, shortened: as §1
With `CC(C)(O/N=C(\C(=O)N[C@@H]1C(=O)N2C(C(=O)[O-])=C(/C=C/C[n+]3cnc(N)c(NC(=O)CCN)c3)CSC12)c1nc(N)sc1Cl)C(=O)O` (some centres unmarked) [Compound 62] the MIC90 was 1 µg/mL (≈ 1.41 µM).
`CC(C)(O/N=C(\C(=O)N[C@@H]1C(=O)N2C(C(=O)[O-])=C(/C=C/C[n+]3cnc(N)c(NCCN)c3)CSC12)c1nc(N)sc1Cl)C(=O)O` (some centres unmarked) [Compound 54] gave an MIC90 of 2 µg/mL (≈ 2.94 µM).

What follows are compounds tested on K. pneumoniae β13 in the same assay as above. Conditions: Klebsiella pneumoniae.
Assay type: cell-based
Procedure, shortened: as §1
`CC(C)(O/N=C(\C(=O)N[C@@H]1C(=O)N2C(C(=O)[O-])=C(/C=C/C[n+]3cnc(N)c(NC(=O)CCN)c3)CSC12)c1nc(N)sc1Cl)C(=O)O` (some centres unmarked) [Compound 62] showed an MIC90 of 1 µg/mL (≈ 1.41 µM).
For `CC(C)(O/N=C(\C(=O)N[C@@H]1C(=O)N2C(C(=O)[O-])=C(/C=C/C[n+]3cnc(N)c(NCCN)c3)CSC12)c1nc(N)sc1Cl)C(=O)O` (some centres unmarked) [Compound 54], the MIC90 was 1 µg/mL (≈ 1.47 µM).

Each compound was assayed on E. coli β4 in the same assay as above. Conditions: Escherichia coli.
Assay type: cell-based
Procedure, shortened: as §1
Work on `CC(C)(O/N=C(\C(=O)N[C@@H]1C(=O)N2C(C(=O)[O-])=C(/C=C/C[n+]3cnc(N)c(NC(=O)CCN)c3)CSC12)c1nc(N)sc1Cl)C(=O)O` (some centres unmarked) [Compound 62] yielded an MIC90 of 0.5 µg/mL (≈ 0.705 µM).
Work on `CC(C)(O/N=C(\C(=O)N[C@@H]1C(=O)N2C(C(=O)[O-])=C(/C=C/C[n+]3cnc(N)c(NCCN)c3)CSC12)c1nc(N)sc1Cl)C(=O)O` (some centres unmarked) [Compound 54] yielded an MIC90 of 0.5 µg/mL (≈ 0.734 µM).

The compounds below were run on P. aeruginosa 6065Y in the same assay as above. Conditions: Pseudomonas aeruginosa, 6065Y.
Assay type: cell-based
Procedure, shortened: as §1
Compound `CC(C)(O/N=C(\C(=O)N[C@@H]1C(=O)N2C(C(=O)[O-])=C(/C=C/C[n+]3cnc(N)c(NC(=O)CCN)c3)CSC12)c1nc(N)sc1Cl)C(=O)O` (some centres unmarked) [Compound 62] has an MIC90 of 16 µg/mL (≈ 22.6 µM).
`CC(C)(O/N=C(\C(=O)N[C@@H]1C(=O)N2C(C(=O)[O-])=C(/C=C/C[n+]3cnc(N)c(NCCN)c3)CSC12)c1nc(N)sc1Cl)C(=O)O` (some centres unmarked) [Compound 54] showed an MIC90 of 16 µg/mL (≈ 23.5 µM).

These compounds were tested on P. aeruginosa 37 in the same assay as above. Conditions: Pseudomonas aeruginosa, 37, P. aeruginosa 37.
Assay type: cell-based
Procedure, shortened: as §1
Compound `CC(C)(O/N=C(\C(=O)N[C@@H]1C(=O)N2C(C(=O)[O-])=C(/C=C/C[n+]3cnc(N)c(NC(=O)CCN)c3)CSC12)c1nc(N)sc1Cl)C(=O)O` (some centres unmarked) [Compound 62] has an MIC90 of 8 µg/mL (≈ 11.3 µM).
With `CC(C)(O/N=C(\C(=O)N[C@@H]1C(=O)N2C(C(=O)[O-])=C(/C=C/C[n+]3cnc(N)c(NCCN)c3)CSC12)c1nc(N)sc1Cl)C(=O)O` (some centres unmarked) [Compound 54] the MIC90 was 4 µg/mL (≈ 5.87 µM).

The compounds below were run on P. aeruginosa 43 in the same assay as above. Conditions: Pseudomonas aeruginosa, 43.
Assay type: cell-based
Procedure, shortened: as §1
`CC(C)(O/N=C(\C(=O)N[C@@H]1C(=O)N2C(C(=O)[O-])=C(/C=C/C[n+]3cnc(N)c(NC(=O)CCN)c3)CSC12)c1nc(N)sc1Cl)C(=O)O` (some centres unmarked) [Compound 62] showed an MIC90 of 64 µg/mL (≈ 90.2 µM).
With `CC(C)(O/N=C(\C(=O)N[C@@H]1C(=O)N2C(C(=O)[O-])=C(/C=C/C[n+]3cnc(N)c(NCCN)c3)CSC12)c1nc(N)sc1Cl)C(=O)O` (some centres unmarked) [Compound 54] the MIC90 was 64 µg/mL (≈ 94 µM).

The compounds below were run on A. baumannii 52 in the same assay as above. Conditions: Acinetobacter baumannii, 52.
Assay type: cell-based
Procedure, shortened: as §1
Compound `CC(C)(O/N=C(\C(=O)N[C@@H]1C(=O)N2C(C(=O)[O-])=C(/C=C/C[n+]3cnc(N)c(NC(=O)CCN)c3)CSC12)c1nc(N)sc1Cl)C(=O)O` (some centres unmarked) [Compound 62] has an MIC90 of 32 µg/mL (≈ 45.1 µM).
`CC(C)(O/N=C(\C(=O)N[C@@H]1C(=O)N2C(C(=O)[O-])=C(/C=C/C[n+]3cnc(N)c(NCCN)c3)CSC12)c1nc(N)sc1Cl)C(=O)O` (some centres unmarked) [Compound 54] gave an MIC90 of 32 µg/mL (≈ 47 µM).

These compounds were tested on E. coli AG100 in the same assay as above. Conditions: Escherichia coli, AG100.
Assay type: cell-based
Procedure, shortened: as §1
In the case of `CC(C)(O/N=C(\C(=O)N[C@@H]1C(=O)N2C(C(=O)[O-])=C(/C=C/C[n+]3cnc(N)c(NC(=O)CCN)c3)CSC12)c1nc(N)sc1Cl)C(=O)O` (some centres unmarked) [Compound 62], the MIC90 was 0.5 µg/mL (≈ 0.705 µM).
`CC(C)(O/N=C(\C(=O)N[C@@H]1C(=O)N2C(C(=O)[O-])=C(/C=C/C[n+]3cnc(N)c(NCCN)c3)CSC12)c1nc(N)sc1Cl)C(=O)O` (some centres unmarked) [Compound 54] gave an MIC90 of 0.25 µg/mL (≈ 0.367 µM).

Each compound was assayed on K. pneumoniae 2011E in the same assay as above. Conditions: Klebsiella pneumoniae, 2011E.
Assay type: cell-based
Procedure, shortened: as §1
`CC(C)(O/N=C(\C(=O)N[C@@H]1C(=O)N2C(C(=O)[O-])=C(/C=C/C[n+]3cnc(N)c(NC(=O)CCN)c3)CSC12)c1nc(N)sc1Cl)C(=O)O` (some centres unmarked) [Compound 62] was tested, and the MIC90 was 1 µg/mL (≈ 1.41 µM).
Compound `CC(C)(O/N=C(\C(=O)N[C@@H]1C(=O)N2C(C(=O)[O-])=C(/C=C/C[n+]3cnc(N)c(NCCN)c3)CSC12)c1nc(N)sc1Cl)C(=O)O` (some centres unmarked) [Compound 54] has an MIC90 of 1 µg/mL (≈ 1.47 µM).

The compounds below were run on P. aeruginosa 40 in the same assay as above. Conditions: Pseudomonas aeruginosa, 40.
Assay type: cell-based
Procedure, shortened: as §1
`CC(C)(O/N=C(\C(=O)N[C@@H]1C(=O)N2C(C(=O)[O-])=C(/C=C/C[n+]3cnc(N)c(NC(=O)CCN)c3)CSC12)c1nc(N)sc1Cl)C(=O)O` (some centres unmarked) [Compound 62] showed an MIC90 of 8 µg/mL (≈ 11.3 µM).
With `CC(C)(O/N=C(\C(=O)N[C@@H]1C(=O)N2C(C(=O)[O-])=C(/C=C/C[n+]3cnc(N)c(NCCN)c3)CSC12)c1nc(N)sc1Cl)C(=O)O` (some centres unmarked) [Compound 54] the MIC90 was 4 µg/mL (≈ 5.87 µM).
